This passage reports IC50 results from patent publication US11690850B2, “Inhibitors of receptor interacting protein kinase I for the treatment of disease” (Board of Regents, The University of Texas System, priority 2019, dated 2023).

One experiment has as its target RIPK1 (Homo sapiens (Human), UniProt Q13546). Nature of the experiment: ADP-Glo Kinase Assay. The format is biochemical. Conditions: 5 nM RIPK1 protein, 50 μM ATP, 6 hr reaction, average value across multiple runs. In a few lines: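 ADP formed from ATP is measured by ADP-Glo luminescence with 5 nM RIPK1, preincubated 10 min with compound, then 50 μM ATP for 6 h. Buffer is 50 mM HEPES pH 7.5, 50 mM NaCl, 30 mM MgCl2, 1 mM DTT, 0.05% BSA, 0.02% CHAPS. IC50 comes from a four-parameter fit, averaged over runs.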
A general note: ADP-Glo turns the ADP formed in a reaction into a luminescent signal.

Experiment [1] deals with human monocytic cell line U937. The experiment in a line: Human U937 Cellular Necroptosis Assay. Conditions: U-937; U937 cells stimulated with 25 ng/mL human TNFalpha and 25 μM z-VAD-FMK, 22 hr, viability by Cell Titer-Glo 2.0; average value across multiple runs; read-out: hU937 IC50. It is filed as cell-based.

RIPK1, sequence (Q13546 1-327): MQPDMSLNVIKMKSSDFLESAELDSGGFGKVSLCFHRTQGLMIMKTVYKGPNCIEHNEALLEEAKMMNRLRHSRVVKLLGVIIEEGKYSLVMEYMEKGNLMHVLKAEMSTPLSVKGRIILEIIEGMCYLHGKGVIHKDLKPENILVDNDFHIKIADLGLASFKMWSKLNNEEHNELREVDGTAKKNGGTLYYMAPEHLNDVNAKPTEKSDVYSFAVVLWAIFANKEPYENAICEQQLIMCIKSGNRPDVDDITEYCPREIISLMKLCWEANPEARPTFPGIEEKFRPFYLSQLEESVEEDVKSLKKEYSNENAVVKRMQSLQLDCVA

As for `Cc1cc(=O)c(C(=O)NC2CCc3ccccc3NC2=O)nn1-c1ccccc1F` (stereo not shown) [Example 59, 1-(2-fluorophenyl)-6-methyl-4-oxo-N-(2-oxo-2,3,4,5-tetrahydro-1H-benzo[b]-azepin-3-yl)-1,4-dihydropyridazine-3-carboxamide], the IC50 – broadly, the concentration at which inhibition is half-maximal – at RIPK1 stood at 33.5 nM; in experiment [1], 74 nM.

Take `Cc1cc(=O)c(C(=O)Nc2cccc(Cl)c2F)nn1-c1ccccc1` [Example 1, N-(3-chloro-2-fluorophenyl)-6-methyl-4-oxo-1-phenyl-1,4-dihydropyridazine-3-carboxamide]: the IC50 on RIPK1 was determined as 32 nM; in experiment [1], 136 nM.

Consider `Cc1cc(=O)c(C(=O)Nc2cc(Cl)c3c(c2)NC(=O)C3)nn1-c1ccccc1` [Example 32, N-(4-chloro-2-oxoindolin-6-yl)-6-methyl-4-oxo-1-phenyl-1,4-dihydropyridazine-3-carboxamide], for which the IC50 came to 2250 nM on RIPK1 and 5820 nM in experiment [1].

Take `Cc1cc(=O)c(C(=O)NC2CCc3cc(F)cc(F)c3NC2)nn1-c1ccccc1` (stereo not shown) [Example 69, N-(7,9-difluoro-2,3,4,5-tetrahydro-1H-benzo[b]azepin-3-yl)-6-methyl-4-oxo-1-phenyl-1,4-dihydropyridazine-3-carboxamide]: the IC50 turned out to be 8500 nM at RIPK1 and 10000 nM in experiment [1].

Take `Cc1cc(=O)c(C(=O)Nc2cccc(Cl)c2F)nn1-c1ccccc1F` [Example 8, N-(3-chloro-2-fluorophenyl)-1-(2-fluorophenyl)-6-methyl-4-oxo-1,4-dihydropyridazine-3-carboxamide]: the IC50 at RIPK1 was 53 nM; in experiment [1], 172 nM.

As for `Cc1cc(=O)c(C(=O)N[C@H]2COc3cc(C#N)ccc3N(C)C2=O)nn1-c1ccccc1` [Example 55, (S)-N-(8-cyano-5-methyl-4-oxo-2,3,4,5-tetrahydrobenzo[b][1,4]oxazepin-3-yl)-6-methyl-4-oxo-l-phenyl-1,4-dihydropyridazine-3-carboxamide], the results for the IC50 (at RIPK1; in experiment [1]) were 33 nM and 54 nM, respectively.

Turning to `Cc1c(Cl)c(=O)c(C(=O)NC2CCc3ccccc3NC2=O)nn1-c1ccccc1` (stereo not shown) [Example 39, 5-Chloro-6-methyl-4-oxo-N-(2-oxo-2,3,4,5-tetrahydro-1H-benzo[b]azepin-3-yl)-1-phenyl-1,4-dihydropyridazine-3-carboxamide], the figures for the IC50 (on RIPK1; in experiment [1]) were 18 nM and 69 nM, respectively.

Regarding `O=C(NC1CCc2ccccc2NC1=O)c1nn(-c2ccccc2)c2ccccc2c1=O` (stereo not shown) [Example 70, 4-oxo-N-(2-oxo-2,3,4,5-tetrahydro-1H-benzo[b]azepin-3-yl)-1-phenyl-1,4-dihydrocinnoline-3-carboxamide], the figures for the half-inhibitory concentration (IC50) (on RIPK1; in experiment [1]) were 28.9 nM and 227 nM, respectively.

`Cc1cc(=O)c(C(=O)N[C@H]2COc3cc(C#N)ccc3N(C)C2=O)nn1-c1ccc(C#N)cc1` [Example 60, (S)-N-(8-cyano-5-methyl-4-oxo-2,3,4,5-tetrahydrobenzo[b][1,4]oxazepin-3-yl)-1-(4-cyanophenyl)-6-methyl-4-oxo-1,4-dihydropyridazine-3-carboxamide]: the IC50 at RIPK1 worked out at 84.9 nM; in experiment [1], 424 nM.

As to `Cc1ccc(-n2nc(C(=O)NC3CCc4ccccc4NC3=O)c(=O)cc2C)cc1` (stereo not shown) [Example 71, 6-methyl-4-oxo-N-(2-oxo-2,3,4,5-tetrahydro-1H-benzo[b]azepin-3-yl)-1-(p-tolyl)-1,4-dihydropyridazine-3-carboxamide], the figures for the IC50 (at RIPK1; in experiment [1]) were 30.9 nM and 50.2 nM, respectively.

In the case of `COc1cccc(-n2nc(C(=O)NC3CCc4ccccc4NC3=O)c(=O)cc2C)c1` (stereo not shown) [Example 67, 1-(3-methoxyphenyl)-6-methyl-4-oxo-N-(2-oxo-2,3,4,5-tetrahydro-1H-benzo[b]-azepin-3-yl)-1,4-dihydropyridazine-3-carboxamide], the IC50 at RIPK1 was determined as 68.2 nM; in experiment [1] it was 281 nM.
